Results reported in publication PMC3625590, “NBM-T-L-BMX-OS01, Semisynthesized from Osthole, Is a Novel Inhibitor of Histone Deacetylase and Enhances Learning and Memory in Rats” (Evidence-based Complementary and Alternative Medicine : eCAM, 2013).

Columns and labels:
naïve rats = assay: Water-maze learning, naïve rats; format: in vivo, Sprague-Dawley rats; conditions: 5 mg/kg/d i.p.
Method: SAHA was supplied by NatureWise Biotech and Medicals Corporation (Taipei, Taiwan). […] (St. Louis, MO, USA). The BMX and SAHA stock (100 mg/mL) was dissolved in DMSO and diluted with saline to a final concentration of 0.5 mg/mL (in 0.5% DMSO/saline). […] SD rats were randomly divided into 3 groups. For the naïve animal experiments, the BMX-injected or SAHA-injected groups were injected with BMX (5 mg/kg/d) or SAHA (5 mg/kg/d) intraperitoneally 7 d prior to behavioral experiments and during the experimentation. The control group received the 0.5% DMSO/saline injection. The injection volume was 10 μL/g of body weight. The injections were performed once per day. For the amnesia experiment, the protocol was adopted from previous studies with modifications. […] The control group received the 0.5% DMSO/saline injection. The injection volume was 10 μL/g of body weight. […] The method was adopted from that of a previous study with modifications. A plastic circular pool 2.0 m in diameter and 0.6 m in height was filled with water (25 ± 2°C) to a depth of 20 cm. A circular platform (8 cm in diameter) was placed at a specific location from the edge of the pool and submerged 2-3 cm below the water surface. Water was made cloudy by adding toxic-free dye. Distinctive visual cues were set on the wall. For spatial learning, animals were subjected to 3 trials per day, with one trial early in the morning, one trial at noon, and another in the late afternoon. The training procedure lasted 4 days, and a total of 12 trials were given. This procedure was adopted because spaced training is a better paradigm to facilitate memory consolidation. For these trials, the rats were positioned at different starting points spaced equally around the perimeter of the pool in random order. They had 120 s to find the hidden platform. […] The time each animal took to reach the platform was recorded as the escape latency. […] The rats were placed in the pool with the platform removed, and the time they spent in each quadrant (Quadrants 1, 2, 3, and 4) was recorded. […]

HEK293T cells = assay: CRE promoter-luciferase assay; format: cell-based
Method: Supplemental Materials and Methods
2.1. HEK293T cells. HEK293T cells were maintained in Dulbecco’s modified Eagle’s medium (Invitrogen) supplemented with 10% fetal calf serum (Invitrogen). Cultures were maintained in a humidified 5% CO2-95% air atmosphere at 37°C.
2.2. Immunocytochemistry. Cultured hippocampal neurons were fixed with 4% paraformaldehyde for 15 min and permeablized with 0.1% Triton X-100 for 20 min at room temperature (RT). The primary Mouse anti-β III tubulin and anti-actin (Millipore) Abs were added for 1 h at RT. After wash, Alexa Fluor 488 […] Ab (Molecular Probes, Europe BV, Leiden, Netherlands) were incubated with cells for 1 h at RT. Coverslips were mounted, and images were obtained by using a Axio Observer D1 microscope (Zeiss, Jena, Germany). Neuronal process longer than […] is defined as neurites.
2.3. Western blot. […]
The lysate was resolved by 8% SDS-PAGE. […] The protein bands were quantified using the NIH Image J Software. […]
FBS. […] The activity of firefly luciferase was measured as firefly luciferase luminescence after reaction with luciferase reagent for 15 min. Next, the activity of Renilla luciferase is measured as Renilla luciferase luminescence after reaction with Stop & Glo reagent for 15 min.
The ratio of firefly luciferase activity to Renilla luciferase activity was calculated and normalized to vector control.

[1] = set-up: method as in PMID 20010553; conditions: cited from earlier work
Sco-induced amnesia rats = assay: Passive one-way avoidance, Sco-induced memory impairment; format: in vivo, Sprague-Dawley rats; conditions: Sco 1.5 mg/kg/d; BMX or SAHA 5 mg/kg/d i.p.; 1 day and 7 days after footshock
Method: The BMX and SAHA stock (100 mg/mL) was dissolved in DMSO and diluted with saline to a final concentration of 0.5 mg/mL (in 0.5% DMSO/saline). Sco was dissolved in saline to a final concentration of 0.15 mg/mL based on previous studies [35, 36]. SD rats were randomly divided into 3 groups. For the naïve animal experiments, the BMX-injected or SAHA-injected groups were injected with BMX (5 mg/kg/d) or SAHA (5 mg/kg/d) intraperitoneally 7 d prior to behavioral experiments and during the experimentation. The control group received the 0.5% DMSO/saline injection. The injection volume was 10 μL/g of body weight. The injections were performed once per day. For the amnesia experiment, the protocol was adopted from previous studies [35, 36] with modifications. The Sco-injected (SAHA + Sco) or (BMX + Sco)-injected groups were injected with Sco (1.5 mg/kg/d), SAHA (5 mg/kg/d) or BMX (5 mg/kg/d), intraperitoneally 7 d prior to behavioral experiments and during the experimentation. The control group received the 0.5% DMSO/saline injection. The injection volume was 10 μL/g of body weight. […]
The apparatus consisted of a trough-shaped alley divided by a sliding door that separates an illuminated safety compartment and a dark compartment. […] The behavioral task, including the training and testing procedures, was recorded between 8:00 AM and 6:00 PM. […]

O=C(CCCCCCC(=O)Nc1ccccc1)NO [SAHA, suberoylanilide hydroxamic acid, reference compound]
escape latency in finding the hidden platform (naïve rats): shortened escape latency | visual discrimination ability, motor coordination, and motivational state (swimming speed, visible platform learning) (naïve rats): Neither BMX nor SAHA affects | probe trial, time spent in target quadrant (naïve rats; day 5): showed no difference compared with the control group | CRE-mediated promoter activity (HEK293T cells): increased | crossing of the blood-brain barrier [1]: cross the blood-brain barrier (BBB) | retention time in the illuminated chamber (Sco-induced amnesia rats): showed less retention time in the illuminated chamber
